Article PMC8604237 (Clinical and Translational Science, 2021)

What was measured:
[1] = single dose, non-Japanese adults; cited from earlier work
[2] = cited from earlier work
patients with SBS [3] = test: Time- and exposure-response analysis of prescribed PS; type: in vivo, human; settings: for percent change from baseline of prescribed PS volume (maximum) / percent change from baseline of PS volume (maximum): 0.05 mg/kg
[4] = Population PK analysis of teduglutide; type: in vivo, human
patients with SBS [5] = settings: cited from earlier work
[6] = single and repeated doses up to 20 mg

impact of race (Japanese vs. non-Japanese) on CL/F ([4]; covariate analysis): did not have an impact | impact of race (Japanese vs. non-Japanese) on K a ([4]; covariate analysis): did not have an impact | impact of race (Japanese vs. non-Japanese) on V/F ([4]; covariate analysis): did not have an impact | CL/F in female subjects, lower relative to male subjects ([4]; final PopPK model): 7% | V/F of typical subject of 0.38 years relative to typical subject of 34 years ([4]; final PopPK model): fourfold higher | absorption lag time ([4]; final PopPK model, corresponds to 0.299 h): 17.9 min | time of peak concentrations after dosing ([4]; observed individual concentrations, adult and pediatric patients with SBS, s.c.): 3 to 5 h | terminal elimination half-life (t 1/2), population estimate ([4]; patients with SBS, final PopPK model): 1.47 h | mean C max,ss in Japanese adult patients, higher than in non-Japanese adult patients ([4]; s.c. 0.05 mg/kg, SBS): 23% | mean C max,ss in Japanese pediatric patients, difference from non-Japanese pediatric patients ([4]; s.c. 0.05 mg/kg, SBS): ≤ 20% | time to total absorption after dosing ([4]; suggested by K a 0.330 h^−1 and lag time 17.9 min): ~10 h
SMILES: CC[C@H](C)[C@H](NC(=O)[C@H](Cc1ccccc1)NC(=O)[C@H](CC(=O)O)NC(=O)[C@H](CCCNC(=N)N)NC(=O)[C@H](C)NC(=O)[C@H](C)NC(=O)[C@H](CC(C)C)NC(=O)[C@H](CC(N)=O)NC(=O)[C@H](CC(=O)O)NC(=O)[C@H](CC(C)C)NC(=O)[C@@H](NC(=O)[C@@H](NC(=O)[C@H](CC(N)=O)NC(=O)[C@H](CCSC)NC(=O)[C@H](CCC(=O)O)NC(=O)[C@H](CC(=O)O)NC(=O)[C@H](CO)NC(=O)[C@H](Cc1ccccc1)NC(=O)[C@H](CO)NC(=O)CNC(=O)[C@H](CC(=O)O)NC(=O)CNC(=O)[C@@H](N)Cc1c[nH]cn1)[C@@H](C)O)[C@@H](C)CC)C(=O)N[C@@H](CC(N)=O)C(=O)N[C@@H](Cc1c[nH]c2ccccc12)C(=O)N[C@@H](CC(C)C)C(=O)N[C@H](C(=O)N[C@@H](CCC(N)=O)C(=O)N[C@H](C(=O)N[C@@H](CCCCN)C(=O)N[C@H](C(=O)N[C@H](C(=O)N[C@@H](CC(=O)O)C(=O)O)[C@@H](C)O)[C@@H](C)CC)[C@@H](C)O)[C@@H](C)CC [teduglutide]
AUCinf in individuals with ESRD vs healthy volunteers [1]: more than twofold higher | C max in individuals with ESRD vs healthy volunteers [1]: more than twofold higher | terminal elimination half-life [2]: ~ 2 h | time of maximum plasma levels after dosing ([2]; s.c. injection): 3 to 5 h | accumulation [2, 6]: no accumulation | rate and extent of absorption vs dose [2, 6]: dose‐proportional | percent change from baseline of prescribed PS volume (maximum) (patients with SBS [3]; Japanese pediatric patients with SBS): −29.7% | percent change from baseline of PS volume (maximum) (patients with SBS [3]; adult Japanese patients with SBS): −62.6% | percent change from baseline of PS volume (maximum) (patients with SBS [3]; adult non-Japanese patients with SBS): −54.9% | percent change from baseline of prescribed PS volume (maximum) (patients with SBS [3]; non-Japanese pediatric patients with SBS): −74.7% | maximum reduction in PS (patients with SBS [3]; daily dosing of 0.05 mg/kg): 5.76 L/week | E max of teduglutide on prescribed PS volume (patients with SBS [3]; final time- and exposure-response model, change from baseline in prescribed PS volume): −5.76 L/week | incidence of adverse events leading to discontinuation of treatment (patients with SBS [5]; 0.05 mg/kg, adult patients with SBS, 24-week study): less than 5% | responder rate (≥20% reduction from baseline in the volume of PS) (patients with SBS [5]; daily s.c. 0.05 mg/kg, patients with SBS, vs. 30% placebo, p = 0.002): 63%
